Experiments:
human MCHR1 [1] = target: T1, human MCHR1 (Homo sapiens, UniProt Q99705); test: MCH receptor 1 antagonistic activity, Ca2+ mobilization assay; assay type: cell-based; details: test compound 0.1 μM; human MCHR1-expressing CHO cells (clone #4); MCH(4-19) 2 nM; read-out: Inhibition rate % (0.1 μM)
T1 construct: expressed in transfected cells; host or cells: CHO cell clone 57 (described in WO01/82925); membrane fraction
Description: Measurement of MCH Receptor 1 Antagonistic Activity of Test Compound Using Ca^2+ Mobilization Assay
Using an expression vector plasmid introduced with human MCHR1 gene for expression in animal cells, human MCHR1 gene was introduced into CHO cells (CHO dhfr^−) by Lipofectamine LTX (Invitrogen). The cells were cultured in selection MEMα medium [445 mL of MEMα medium without nucleic acid and added with 5 mL of Penicillin-Streptomycin (Invitrogen) and 50 mL of dialyzed fetal bovine serum]. Colony 24 clones grown in the selection medium, which were human MCHR1 gene-expressing CHO cell candidates, were selected. […] In the following test, this human MCHR1-expressing CHO cell (clone #4) was used. An integrated dispensing function fluorometer (CellLux, PerkinElmer) was used for Ca^2+ mobilization assay. The CHO cells were sown in a 96 well plate (type 3904, Corning) with a black wall and clear well bottom at a density of 20000 cells/well, and cultured in an incubator for about 24 hr at 5% CO2, 37° C. The medium was removed, and the cells were washed with phosphate buffered saline (PBS). A Ca^2+ indicator dye reagent (DOJINDO LABORATORIES, Ca screening no-wash kit Fluo4) was added at 100 μL/well, and the dye was allowed to penetrate into the cell for 30 min in an incubator at 5% CO2, 37° C. The plate was set on a plate reader. First, a test compound solution diluted with an assay buffer [10 mM HEPES (pH 7.4), 1× assay buffer containing 0.1% BSA (DOJINDO LABORATORIES, attached to Ca screening no-wash kit Fluo4)] or DMSO solution was added at 50 μL/well, and then ligand MCH (4-19) peptide (final concentration 2 nM) diluted with assay buffer or DMSO was added at 50 μL/well, during which changes in intracellular fluorescence were measured at 2 second intervals. The antagonistic activity of the test compound was calculated by the following formula and shown as an inhibition rate (%) wherein the intracellular fluorescence activity resulting from the stimulation by the addition of ligand MCH (4-19) peptide was 100% and that of the well added with DMSO solution alone was 0%. inhibitory rate (%)=100−[fluorescence activity upon addition of test compound and MCH(4-19) peptide solution−fluorescence activity upon addition of DMSO solution only]/[fluorescence activity upon addition of DMSO solution and MCH(4-19) peptide solution−fluorescence activity upon addition of DMSO solution only]×100
The inhibition rates (%) of test compounds (0.1 μM) as antagonist activity measured using human MCHR1-expressing CHO cells (clone #4) are shown in the following Table 3.

human MCHR1 [2] = target: T1, human MCHR1; test: Human MCH receptor 1 (MCHR1) binding inhibitory activity, binding assay with [125I]-MCH(4-19); details: test compound 0.1 μM, human MCHR1-expressing CHO cell membrane fraction, read-out: Binding inhibition rate % (0.1 μM)
Description: Determination of Human MCH Receptor 1 (MCHR1) Binding Inhibitory Activity of Test Compound Using Binding Assay
1. Preparation of Membrane Fraction
Using human MCHR1(=SLC-1 receptor)-expressing CHO cell clone 57 described in WO01/82925, MCHR1-expressing CHO cellular membrane fractions were prepared by the following method.
In phosphate buffered saline (pH 7.4) supplemented with 5 mM EDTA (ethylenediaminetetraacetic acid) were respectively suspended human MCHR1-expressing CHO cells (1×10^8 cells) and centrifuged. Homogenate buffer (10 mL, 10 mM NaHCO3, 5 mM EDTA, pH 7.5, 0.5 mM PMSF (phenylmethylsulfonyl fluoride), 20 mg/L leupeptin, 4 mg/L E-64, 1 mg/L pepstatin A) was added to the pellets of the cells and, using Polytron Homogenizer, the mixture was homogenated. The supernatant obtained after centrifugation at 400×g for 10 min was further centrifuged at 100,000×g for 1 hr to give precipitate of the membrane fraction. The precipitate were suspended in 2 mL of assay buffer [20 mM Tris-HCl (pH 7.5), 5 mM EDTA, 0.5 mM PMSF, 20 mg/L leupeptin, 4 mg/L E-64, 1 mg/L pepstatin A]. The membrane fractions were suspended in assay buffer to a protein concentration of 2 mg/mL, and after dispensing, preserved at −80° C. and used upon thawing each time when in use.
The MCHR1 ligand binding inhibitory activity of the test compound was determined as follows.
An MCHR1-expressing CHO cellular membrane fraction (173 μL) diluted with an assay buffer was dispensed to a 96 well polypropylene plate (3363, Corning). DMSO solution (2 μL), 33 μM cold MCH(1-19) diluted with DMSO solution (2 μL), or a test compound solution diluted with DMSO solution to various concentrations (2 μL) was added, and lastly, [^125I]-MCH(4-19) diluted with assay buffer (hereinafter, sometimes to be referred to as “hot MCH”, 25 μL) was added to each well. The mixture was reacted with stirring at room temperature for 1 hr, and the plate was set on FilterMate Harvester (PerkinElmer). Using a treating glass filter plate (GF/C, PerkinElmer) with polyethyleneimine, which had been previously set, the plate was suction-filtered and washed three times with washing buffer (50 mM Tris-HCl buffer pH 7.5). The glass filter plate was dried, MicroScinti0 (PerkinElmer) was added at 25 μL/well, and the resulting radioactivity was measured by TopCount liquid scintillation counter (PerkinElmer). The binding inhibition rate of the test compound was calculated by the following formula. Binding inhibition (%)=100−(radioactivity upon addition of test compound and hot MCH−radioactivity upon addition of cold MCH and hot MCH solution)/(radioactivity upon addition of DMSO solution and hot MCH−radioactivity upon addition of cold MCH and hot MCH solution)×100
The binding inhibition rates (%) of test compounds (0.1 μM) as measured using human MCHR1-expressing CHO cell are shown in Table 2.

T1 sequence (Q99705 whole entry): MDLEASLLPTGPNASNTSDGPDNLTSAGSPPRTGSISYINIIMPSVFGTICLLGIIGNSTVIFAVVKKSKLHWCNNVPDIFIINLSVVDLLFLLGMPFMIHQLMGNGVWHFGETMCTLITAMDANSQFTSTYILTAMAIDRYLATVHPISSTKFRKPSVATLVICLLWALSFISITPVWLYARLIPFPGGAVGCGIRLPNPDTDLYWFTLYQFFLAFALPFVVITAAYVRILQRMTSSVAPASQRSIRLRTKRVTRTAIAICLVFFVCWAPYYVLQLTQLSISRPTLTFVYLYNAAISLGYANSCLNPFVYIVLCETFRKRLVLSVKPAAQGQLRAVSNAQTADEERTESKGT

inhibition at 0.1 µM (human MCHR1 [1]) [%]	inhibition at 0.1 µM (human MCHR1 [2]) [%]	SMILES
88	77	COc1cc(-n2ccc3oc(-c4ccc(Cl)cn4)cc3c2=O)ccc1OCC1(C#N)CC1 [Example 19, 1-((4-(2-(5-Chloropyridin-2-yl)-4-oxofuro[3,2-c]pyridin-5(4H)-yl)-2-methoxyphenoxy)methyl)cyclopropanecarbonitrile]
	58	COc1cc(-n2ccc3oc(-c4ccccc4)cc3c2=O)ccc1OCC1(C#N)CC1 [Example 20, 1-((2-Methoxy-4-(4-oxo-2-phenylfuro[3,2-c]pyridin-5(4H)-yl)phenoxy)methyl)cyclopropanecarbonitrile]
	42	COc1cc(-n2ccc3oc(-c4ccc(F)cn4)cc3c2=O)ccc1OCC1(C#N)CC1 [Example 21, 1-((4-(2-(5-Fluoropyridin-2-yl)-4-oxofuro[3,2-c]pyridin-5(4H)-yl)-2-methoxyphenoxy)methyl)cyclopropanecarbonitrile]
72	73	COc1cc(-n2ccc3oc(-c4ccc(Cl)cc4)cc3c2=O)cnc1OCC1(C#N)CC1 [Example 23, 1-(((5-(2-(4-Chlorophenyl)-4-oxofuro[3,2-c]pyridin-5(4H)-yl)-3-methoxypyridin-2-yl)oxy)methyl)cyclopropanecarbonitrile]
	47	COC(=O)c1ccc(-n2ccc3oc(-c4ccc(Cl)cc4)cc3c2=O)cc1OC [Example 24, Methyl 4-(2-(4-chlorophenyl)-4-oxofuro[3,2-c]pyridin-5(4H)-yl)-2-methoxybenzoate]
	60	COc1cc(-n2ccc3oc(-c4ccc(C(F)(F)F)cc4)cc3c2=O)ccc1OCC1(C#N)CC1 [Example 27, 1-((2-Methoxy-4-(4-oxo-2-(4-(trifluoromethyl)phenyl)furo[3,2-c]pyridin-5(4H)-yl)phenoxy)methyl)cyclopropanecarbonitrile]
	66	COc1cc(-n2ccc3oc(-c4ccc(Cl)cc4)cc3c2=O)ccc1O [Example 30, 2-(4-Chlorophenyl)-5-(4-hydroxy-3-methoxyphenyl)furo[3,2-c]pyridin-4(5H)-one]
	74	COc1cc(-n2ccc3oc(-c4ccc(Cl)cc4)cc3c2=O)ccc1C(=O)NCC1CC1 [Example 45, 4-(2-(4-Chlorophenyl)-4-oxofuro[3,2-c]pyridin-5(4H)-yl)-N-(cyclopropylmethyl)-2-methoxybenzamide]
	74	CCc1cc(-n2ccc3oc(-c4ccc(Cl)cc4)cc3c2=O)ccc1OCC1(C#N)CC1 [Example 47, 1-((4-(2-(4-Chlorophenyl)-4-oxofuro[3,2-c]pyridin-5(4H)-yl)-2-ethylphenoxy)methyl)cyclopropanecarbonitrile]
	71	CCC1(COc2ccc(-n3ccc4oc(-c5ccc(Cl)cc5)cc4c3=O)cc2OC)COC1 [Example 48, 2-(4-Chlorophenyl)-5-(4-((3-ethyloxetan-3-yl)methoxy)-3-methoxyphenyl)furo[3,2-c]pyridin-4(5H)-one]
	85	COc1cc(-n2ccc3oc(-c4ccc(Cl)cc4)cc3c2=O)ccc1OCC(N)=O [Example 50, 2-(4-(2-(4-Chlorophenyl)-4-oxofuro[3,2-c]pyridin-5(4H)-yl)-2-methoxyphenoxy)acetamide]
	90	COc1cc(-n2ccc3oc(-c4ccc(Cl)cc4)cc3c2=O)ccc1OCCCC(N)=O [Example 51, 4-(4-(2-(4-Chlorophenyl)-4-oxofuro[3,2-c]pyridin-5(4H)-yl)-2-methoxyphenoxy)butanamide]

The next lines start with the compound.

SMILES	inhibition at 0.1 µM (human MCHR1 [1]) [%]	inhibition at 0.1 µM (human MCHR1 [2]) [%]
COc1ccc(-n2ccc3oc(-c4ccc(Cl)cc4)cc3c2=O)cc1OC [Example 2, 2-(4-Chlorophenyl)-5-(3,4-dimethoxyphenyl)furo[3,2-c]pyridin-4(5H)-one]	94	81
COc1cc(-n2ccc3oc(-c4ccc(Cl)cc4)cc3c2=O)ccc1OCC1(C#N)CC1 [Example 5, 1-((4-(2-(4-Chlorophenyl)-4-oxofuro[3,2-c]pyridin-5(4H)-yl)-2-methoxyphenoxy)methyl)cyclopropanecarbonitrile]	100	97
COc1cc(-n2cnc3oc(-c4ccc(Cl)cc4)cc3c2=O)ccc1OCC1(C#N)CC1 [Example 6, 1-((4-(6-(4-Chlorophenyl)-4-oxofuro[2,3-d]pyrimidin-3(4H)-yl)-2-methoxyphenoxy)methyl)cyclopropanecarbonitrile]	37	82
COc1cc(-n2ccc3oc(-c4ccc(Cl)cc4)cc3c2=O)ccc1OCC(C)(C)O [Example 7, 2-(4-Chlorophenyl)-5-(4-(2-hydroxy-2-methylpropoxy)-3-methoxyphenyl)furo[3,2-c]pyridin-4(5H)-one]	106	97
N#CC1(COc2ccc(-n3ccc4oc(-c5ccc(Cl)cc5)cc4c3=O)cc2Cl)CC1 [Example 8, 1-((2-Chloro-4-(2-(4-chlorophenyl)-4-oxofuro[3,2-c]pyridin-5(4H)-yl)phenoxy)methyl)cyclopropanecarbonitrile]		76
COc1cc(-n2ccc3oc(-c4ccc(F)cc4)cc3c2=O)ccc1OCC1(C#N)CC1 [Example 10, 1-((4-(2-(4-Fluorophenyl)-4-oxofuro[3,2-c]pyridin-5(4H)-yl)-2-methoxyphenoxy)methyl)cyclopropanecarbonitrile]	86	83
COc1cc(-n2ccc3oc(-c4ccc(Cl)s4)cc3c2=O)ccc1OCC1(C#N)CC1 [Example 12, 1-((4-(2-(5-Chloro-2-thienyl)-4-oxofuro[3,2-c]pyridin-5(4H)-yl)-2-methoxyphenoxy)methyl)cyclopropanecarbonitrile]	64	53
COc1cc(-n2ccc3oc(-c4ccccc4F)cc3c2=O)ccc1OCC1(C#N)CC1 [Example 15, 1-((4-(2-(2-Fluorophenyl)-4-oxofuro[3,2-c]pyridin-5(4H)-yl)-2-methoxyphenoxy)methyl)cyclopropanecarbonitrile]		17
COc1ccc(-c2cc3c(=O)n(-c4ccc(OCC5(C#N)CC5)c(OC)c4)ccc3o2)cc1 [Example 16, 1-((2-Methoxy-4-(2-(4-methoxyphenyl)-4-oxofuro[3,2-c]pyridin-5(4H)-yl)phenoxy)methyl)cyclopropanecarbonitrile]	97	79

Reference: patent publication US9505772B2, “Aromatic ring compound” (TAKEDA PHARMACEUTICAL COMPANY LIMITED, priority 2012, dated 2016)
